Test in all cases: minimal inhibitory concentration (MIC) by two-fold agar-plate dilution method
What all share (assay type): cell-based

Assay [1] concerns B. Subtilis ATCC-6633. As to conditions: Bacillus subtilis, ATCC6633, 10^8 viable cells per ml, HI-agar, 37° C., 20 hours. How it is done: (§1) The minimal inhibitory concentration (MIC) was determined by the two-fold agar-plate dilution method as described below.
(§2) One loopful of an overnight culture of each test strain in Trypticase-soy broth was streaked on heart infusion agar (HI-agar) containing graded concentrations of representative antibiotic, and the MICs were expressed in terms of μg/ml. after incubation at 37° C. for 20 hours.

Assay [2] deals with Sal. Enteritidis. Particulars: Salmonella enterica, 10^8 viable cells per ml, HI-agar, 37° C., 20 hours. How it is done: as §1, §2
Assay [3] concerns Staph. Aureus 209-P. Particulars: Staphylococcus aureus, 10^8 viable cells per ml, HI-agar, 37° C., 20 hours. How it is done:
as §1, §2

For assay [4], the system named is Ps. Aeruginosa. Particulars: Pseudomonas aeruginosa. How it is done:
as §1, §2

The test system of assay [5] is Sh flexneri 2a. Particulars: 20 h. How it is done:
(§3) For the purpose of illustrating of usefulness of the object compound(1) of this invention, the following minimal inhibitory concentrations of some representative compounds against some test strains will be shown.
as §1, §2

Assay [6] relates to Ps. Aeruginosa 721. Particulars: Pseudomonas aeruginosa, 10^6 viable cells per ml, HI-agar, 37° C., 20 hours. How it is done:
as §3, §1, §2

[7] abbreviates: Sal. Enteritidis, first part of table.
Where [8] appears, read: ENTERITIDIS, Sal. Enteritides, second part of table.
The mark [9] stands for this setting: Ps. Aeruginosa, 10^6 viable cells per ml, HI-agar, 37° C., 20 hours, read-out: MIC.

Values after ≈ are worked out from the molar mass of the structure shown. Where two headings read alike, the source gives them in different places.

For `Cc1[nH]cc(OCC(=O)N[C@@H](C(=O)NC2C(=O)N3C(C(=O)[O-])=C(CSc4nnnn4C)CS[C@H]23)c2ccccc2)c(=O)c1Cl.[Na+]` (stereo partly drawn) [Example 1-31, sodium 7-{D-2-[2-(4-oxo-5-chloro-6-methyl-1,4-dihydropyridin-3-yloxy)acetamido]-2-phenylacetamido}-3-(1-methyl-1H-tetrazol-5-ylthiomethyl)-3-cephem-4-carboxylate], the minimal inhibitory concentration (MIC) was found to be 0.78 µg/mL in assay [1]; 0.39 µg/mL in assay [2] (setting [7]); 1.56 µg/mL in assay [3]; 0.78 µg/mL in assay [4] (20 h); 0.2 µg/mL in assay [5].
Regarding `Cn1nnnc1SCC1=C(C(=O)O)N2C(=O)C(NC(=O)[C@H](NC(=O)COc3c[nH]c(CO)c(Cl)c3=O)c3ccccc3)[C@H]2SC1` (stereo partly drawn) [Example 1-34, 7-{D-2-[2-(4-oxo-5-chloro-6-hydroxymethyl-1,4-dihydropyridin-3-yloxy)-acetamido]-2-phenylacetamido}-3-(1-methyl-1H-tetrazol-5-ylthiomethyl)-3-cephem-4-carboxylic acid], the minimum inhibitory concentration (MIC) turned out to be 0.2 µg/mL (≈ 0.295 µM) in assay [2] (setting [8]), 0.78 µg/mL (≈ 1.15 µM) in assay [4] (setting [9]) and 0.2 µg/mL (≈ 0.295 µM) in assay [5].
Consider `Cn1nnnc1SCC1=C(C(=O)O)N2C(=O)C(NC(=O)[C@H](NC(=O)COc3c[nH]c(CCl)cc3=O)c3ccccc3)C2SC1` (stereo partly drawn) [Example 1-35, 7-{D-2-[2-(4-oxo-6-chloromethyl-1,4-dihydropyridin-3-yloxy)acetamido]-2-penylacetamido}-3-(1-methyl-1H-tetrazol-5-ylthiomethyl)-3-cephem-4-carboxylicacid], for which the MIC in assay [2] (setting [8]) amounted to 0.39 µg/mL (≈ 0.59 µM); in assay [4] (setting [9]), 0.78 µg/mL (≈ 1.18 µM); in assay [5], 0.39 µg/mL (≈ 0.59 µM).
Regarding `Cc1cc(=O)c(OCC(=O)N[C@@H](C(=O)NC2C(=O)N3C(C(=O)O)=C(CSc4nnnn4C)CSC23)c2ccccc2)c[nH]1` (stereo partly drawn) [Example 1-36, 7-{D-2-[2-(4-oxo-6-methyl-1,4-dihydropyridin-3-yloxy)acetamido]-2-phenylacetamido}-3-(1-methyl-1H-tetrazol-5-ylthiomethyl)-3-cephem-4-carboxylic acidm], the results for the MIC in assay [2] (setting [8]), in assay [4] (setting [9]) and in assay [5] were 0.78 µg/mL (≈ 1.24 µM), 1.56 µg/mL (≈ 2.49 µM) and 0.39 µg/mL (≈ 0.622 µM), respectively.
On to `Cn1nnnc1SCC1=C(C(=O)O)N2C(=O)C(NC(=O)[C@H](NC(=O)c3nonc3O)c3ccccc3)[C@H]2SC1` (stereo partly drawn) [Example 1-1, 7-[D-2-(4-hydroxy-3-furazancarboxamido)-2-phenylacetamido]-3-(1-methyl-1H-tetrazol-5-ylthiomethyl)-3-cephem-4-carboxylic acid], for which the MIC in assay [6] was 0.39 µg/mL (≈ 0.68 µM).
The same measure, in the same setting: with `Cn1nnnc1SCC1=C(C(=O)O)N2C(=O)C(NC(=O)[C@H](NC(=O)c3cnc4ccccn4c3=O)c3ccccc3)C2SC1` (stereo partly drawn) [Example 1-6, 7-[D-2-(4-oxo-4H-pyrido[1,2-a]pyrimidine-3-carboxamido)-2-phenylacetamide]-3-(1-methyl-1H-tetrazol-5-ylthiomethyl)-3-cephem-4-carboxylic acid] the figure was 1.56 µg/mL (≈ 2.46 µM); with `Cn1nnnc1SCC1=C(C(=O)O)N2C(=O)C(NC(=O)[C@H](NC(=O)N3CCOC3=O)c3ccc(O)cc3)[C@H]2SC1` (stereo partly drawn) [Example 2-1, 7-[D-2-(2-oxo-3-oxazolidinecarboxamido)-2-(4-hydroxyphenyl)acetamido]-3-(1-methyl-1H-tetrazol-5-ylthiomethyl)-3-cephem-4-carboxylic acid], 0.39 µg/mL (≈ 0.66 µM).
With `Cn1nnnc1SCC1=C(C(=O)O)N2C(=O)C(NC(=O)[C@H](NC(=O)N3CCOC3=O)c3ccccc3)[C@H]2SC1` (stereo partly drawn) [Example 1-10, 7-[D-2-(2-oxo-3-oxazolidinecarboxamido)-2-phenylacetamido]-3-(1-methyl-1H-tetrazol-5-ylthiomethyl)-3-cephem-4-carboxylic acid], the MIC in assay [1] was 0.2 µg/mL (≈ 0.348 µM); in assay [2] (setting [7]), 0.78 µg/mL (≈ 1.36 µM); in assay [3], 0.78 µg/mL (≈ 1.36 µM); in assay [6], 0.39 µg/mL (≈ 0.679 µM).
As to `Cc1[nH]cc(OCC(=O)N[C@@H](C(=O)NC2C(=O)N3C(C(=O)O)=C(CSc4nnnn4C)CSC23)c2ccc(O)cc2)c(=O)c1Cl` (stereo partly drawn) [Example 1-37, 7-{D-2-[2-(4-oxo-5-chloro-6-methyl-1,4-dihydropyridin-3-yloxy)acetamido]-2-(4-hydroxy)phenylacetamido} -3-(1-methyl-1H-tetrazol-5-ylthiomethyl)-3-cephem-4-carboxylic acid], the MIC in assay [2] (setting [8]) worked out at 0.05 µg/mL (≈ 0.0738 µM); in assay [4] (setting [9]) it was 0.78 µg/mL (≈ 1.15 µM); in assay [5], 0.1 µg/mL (≈ 0.148 µM).
For the compound `Cn1nnnc1SCC1=C(C(=O)O)N2C(=O)C(NC(=O)[C@H](NC(=O)c3cc(Cl)n[nH]c3=O)c3ccccc3)[C@H]2SC1` (stereo partly drawn) [Example 1-20, 7-[D-2-(3-oxo-6-chloro-2,3-dihydro-4-pyridazinecarboxamido)-2-phenylacetamido]-3-(1-methyl-1H-tetrazol-5-ylthiomethyl)-3-cephem-4-carboxylic acid], inhibition of growth in assay [6] (MIC) required 0.78 µg/mL (≈ 1.26 µM).
Still for that read-out and setting: with `Cn1nnnc1SCC1=C(C(=O)O)N2C(=O)C(NC(=O)[C@H](NC(=O)Cc3cc(=O)[nH]c(=N)[nH]3)c3ccccc3)C2SC1` (some centres unmarked) [Example 1-16] the figure was 1.56 µg/mL (≈ 2.55 µM).

As a reminder, the MIC is the lowest concentration that inhibits growth of the organism.
